Test results: patent US12280026B2, “Use of repirinast in the prophylaxis or treatment of renal fibrosis or kidney disease” (ALGERNON PHARMACEUTICALS INC., priority 2018, dated 2025)
“Also recorded” adds a separate entry of the source. Marks after values point to notes of the source that are not given here.

Legend:
[1] = test system: C57BL/6 mice with UUO surgical ligation; experiment: Example 2: UUO mice, kidney weight evaluation; assay type: in vivo; conditions: for Excised Left Kidney: ligated kidney; for Right Kidney (g): unligated kidney
Description: (§1) In this example, healthy young female C57BL/6 mice were used for the study. At the commencement of the study, mice were between 9-12 weeks of age, weighing 23-25 g. All the mice were obtained from Charles River Laboratories.
(§2) The mice were maintained in a controlled environment with a temp 70-72° F., humidity 30-70%, with a photo cycle of 12 hours of light and 12 hours of dark. They were provided with Harlan Teklad 2018 standard maintenance mouse chow diet and drinking water ad libitium.
(§3) After five days of acclimatization, the mice were grouped according to their body weight. There were ten groups of ten mice each. Nine groups of ten mice each underwent UUO as described above and the other group of ten mice underwent a sham procedure to serve as a no-surgery control.
(§4) Following surgery, the mice were divided into 10 individual study groups of 10 mice each and, following post-surgical recovery, administered a once-daily oral treatment for 14 days. The mice in 8 of the 10 study groups had all received the UUO surgical ligation and were treated individually with a distinct pharmacologic compound as set out in Table 6. The mice in 2 of the 10 study groups were treated individually with a pharmaceutically acceptable vehicle with no active ingredient. The pharmaceutically acceptable vehicle in all groups was 0.5% carboxymethyl cellulose (CMC). All mice were sacrificed with CO2 on post-surgical day 15.
(§5) The dose selected for the animal studies was determined by taking the maximum known human daily dose, dividing by the average weight of an adult (˜60-70 kg) to get a human mg/kg dose. That number was multiplied by 12 to convert to a mouse dose based on conventional dosing tables. See Nair and Jacob, J Basic Clin Pharm March 2016-May 2016, 7(2):27-31.
Kidney weight: The UUO was then examined in situ to ensure that the surgical ligation ties remained patent. Both the ligated (UUO) and non-ligated kidneys were removed for analysis. Weights of both kidneys were measured using a laboratory balance.
(§6) The data are presented as the mean obtained from Microsoft Excel or GraphPad Prism version 5.00 for Windows (GraphPad Software, San Diego California USA). Data were analyzed using two-way ANOVA using Bonferroni and Tamhane post-tests. Differences between groups were considered significant at p<0.05.
Kidney Weight Evaluation: Kidney weight, which indicates functional and pathological changes in the kidney, was evaluated by measuring the weight of both the ligated (UUO) and non-ligated kidneys as previously described. The ligated and non-ligated kidney weights of each study group consisted of the respective kidney weight averages of all mice in each study group.

[2] = Example 1: UUO mice, mean body weight change following surgery; assay type: in vivo; conditions: Example 1, mostly post-surgical day 14, male C57BL/6 mice, PO QD days 1-14, doses of Table 1
Description: Male 9-12 week old C57BL/6 mice of 23-25 grams body weight were used. All mice were acclimated for a minimum of 5 days prior to the start of the study and housed individually in microisolators throughout the study in a 12:12 light-dark cycle on a standard maintenance mouse chow diet (Harlan Teklad 2018) with food and water given ad libitum. Prior to surgery, all mice were weighed for baseline body weight.
The UUO surgical intervention was performed according to previously described methods known in the art (Le Meur Y et al., Macrophage accumulation at a site of renal inflammation is dependent on the M-CSF/c-fms pathway, J Leukocyte Biol., 72:530-537; 2002).
All mice were first anesthetized by intraperitoneal injection with a rodent cocktail (ketamine 10 mg/mL and Xyaline 1 mg/mL) in normal saline (10 μL/g body weight). Pedal reflex and movement of the vibrissae were used to determine the state of unconsciousness. A state of unconsciousness was confirmed after a period of about 5 minutes in all animals. All mice were then shaved on the left side of the abdomen. The shaved area was first swabbed with iodine and then swabbed with alcohol. A vertical incision was made through the skin with a #22 scalpel and the skin was then retracted. A further incision of about 2.5 cm was then made through the peritoneum avoiding any major blood vessels. The peritoneum was then retracted and the left kidney was exposed.
The left kidney was then brought to the surface by hooking the ureter directly beneath the kidney with sterile forceps and gently manipulating the kidney upward. The ureter was ligated at two points directly below the kidney with 5-0 surgical silk with excess suture cut away and discarded post-ligation. The kidney was then gently placed back to its correct anatomical position and the abdomen was lavaged with 1 mL sterile saline to replenish fluid loss. The peritoneum and then skin were sutured with 5-0 Mersilene, and the incision site was gently wiped with iodine. All mice were then placed individually in clean cages that were set on top of a thermal blanket until recovery at about 30-60 minutes later. In some examples, sham surgery was performed as a control by following all steps of the UUO surgical intervention procedure except ligation.
Following surgery, the mice were divided into 14 individual study groups of 8 mice each and, following post-surgical recovery, administered a once-daily oral treatment for 14 days. The mice in 12 of the 14 study groups (hereafter known as “treatment groups”) had all received the UUO surgical ligation and were treated individually with a distinct pharmacologic compound as set out in Table 1. The mice in 2 of the 14 study groups were treated individually with a pharmaceutically acceptable vehicle with no active ingredient. The pharmaceutically acceptable vehicle in all groups was 0.5% carboxymethyl cellulose (CMC). All mice were sacrificed with CO2 on post-surgical day 15.
The dose selected for the animal studies was determined by taking the maximum known human daily dose, dividing by the average weight of an adult (˜60-70 kg) to get a human mg/kg dose. […]
Body weight: The body weights were measured on days 1, 2, 5, 8, 10 and 14 using a laboratory balance.
Body weights were measured on post-surgical days 1, 2, 5, 8, 10 and 14 as previously described. The mean body weight change of each study group was calculated using the body weight average of all mice in each study group.

[3] = Example 2: UUO mice, mean body weight change following surgery; assay type: in vivo, C57BL/6 mice; conditions: for Mean Body Weight Change Following Surgery, Day 1 / Mean Body Weight Change Following Surgery, Day 4 / Mean Body Weight Change Following Surgery, Day 7 / Mean Body Weight Change Following Surgery, Day 10 / Mean Body Weight Change Following Surgery, Day 14: UUO, female C57BL/6 mice, PO QD days 1-14, mg/kg: Telmisartan 3, Bemithyl 200, Repirinast 30, Telmisartan+Bemithyl 3+200, Telmisartan+Repirinast 3+30, Cenicriviroc 40, Bromantane 40; for Body weight course after surgery, in words: Example 2, mg/kg PO QD: Repirinast 30, Bemithyl 200, Bromantane 40, Telmisartan+Bemithyl 3+200
Description: as §1, §2, §3, §4, §5
Body weight: The body weights were measured on days 1, 4, 7, 10 and 14 using a laboratory balance.
Body weights were measured on post-surgical days 1, 4, 7, 10 and 14 as previously described. The mean body weight change of each study group was calculated using the body weight average of all mice in each study group.

[4] = test system: C57BL/6 mice with UUO surgical ligation; experiment: Example 2: UUO mice, renal function evaluation (plasma BUN, creatinine); assay type: in vivo; conditions: for Level of BUN compared to vehicle or other agents, in words: Example 2, mg/kg PO QD: Telmisartan 3, Bemithyl 200, Repirinast 30, Telmisartan+Bemithyl 3+200, Telmisartan+Repirinast 3+30, Cenicriviroc 40, Bromantane 40; for BUN / Creatinine: plasma at sacrifice day 15, group mean, UUO, female C57BL/6 mice, PO QD days 1-14, mg/kg: Telmisartan 3, Bemithyl 200, Repirinast 30, Telmisartan+Bemithyl 3+200, Telmisartan+Repirinast 3+30, Cenicriviroc 40, Bromantane 40; for BUN: * significant vs vehicle Bonferroni, # Tamhane (p<0.05)
Description: as §1, §2, §3, §4, §5
Serum collection: A blood sample was then collected from all mice and plasma analyzed for urea nitrogen and creatinine. Plasma was stored at −80° C. for possible future analysis.
as §6
Renal Function Evaluation: Renal function and disease progression was evaluated by BUN (blood urea nitrogen) as previously described. The BUN of each study group consisted of the BUN average of all mice in each study group.

[5] = ligated kidney drained, group mean, UUO, female C57BL/6 mice, PO QD days 1-14, mg/kg: Telmisartan 3, Bemithyl 200, Repirinast 30, Telmisartan+Bemithyl 3+200, Telmisartan+Repirinast 3+30, Cenicriviroc 40, Bromantane 40
[6] = group mean, UUO, female C57BL/6 mice, PO QD days 1-14, mg/kg: Telmisartan 3, Bemithyl 200, Repirinast 30, Telmisartan+Bemithyl 3+200, Telmisartan+Repirinast 3+30, Cenicriviroc 40, Bromantane 40

CCSc1nc2ccccc2[nH]1 [Bemithyl, 2-Ethylsulfanyl-1H-benzoimidazole]
Weight of the drained left kidney compared to the vehicle group, in words ([1]; Example 2, Telmisartan 3 + Repirinast 30 mg/kg, Bemithyl 200 mg/kg): a similar effect was observed
Drained Left Kidney [1, 5]: 0.1565 g
Excised Left Kidney [1, 6]: 0.398 g
Right Kidney (g) [1, 6]: 0.1333* g
Mean body weight change, comparison with control groups, in words [2]: even greater than that of the sham surgery control group; also recorded: appeared to reverse the negative effects of UUO on body weight gain
Mean Body Weight Change Following Surgery, Day 1 [3]: 0 g
Mean Body Weight Change Following Surgery, Day 4 [3]: 0.16 g
Mean Body Weight Change Following Surgery, Day 7 [3]: 0.16 g
Mean Body Weight Change Following Surgery, Day 10 [3]: 0.36 g
Mean Body Weight Change Following Surgery, Day 14 [3]: 0.54 g
Body weight course after surgery, in words [3]: no initial decrease in body weight; also recorded: even greater than that of the sham surgery control group; also recorded: appeared to reverse the negative effects of UUO on body weight gain
Level of BUN compared to vehicle or other agents, in words [4]: significant reductions in the level of BUN compared to vehicle; also recorded: reduction in BUN compared to vehicle
BUN [4]: 19.4* mg/dL
Creatinine [4]: 0.20 mg/dL

CCCc1nc2c(C)cc(-c3nc4ccccc4n3C)cc2n1Cc1ccc(-c2ccccc2C(=O)O)cc1 [Telmisartan, 2-(4-{[4-Methyl-6-(1-methyl-1H-1,3-benzodiazol-2-yl)-2-propyl-1H-1,3-benzodiazol-1-yl]methyl}phenyl)benzoic acid]
Drained Left Kidney (g) [1, 5]: 0.1853* g
Excised Left Kidney [1, 6]: 0.411 g
Right Kidney (g) [1, 6]: 0.1263* g
Mean Body Weight Change Following Surgery, Day 1 [3]: 0 g
Mean Body Weight Change Following Surgery, Day 4 [3]: -0.24 g
Mean Body Weight Change Following Surgery, Day 7 [3]: 0.39 g
Mean Body Weight Change Following Surgery, Day 10 [3]: 0.45 g
Mean Body Weight Change Following Surgery, Day 14 [3]: 0.58 g
Level of BUN compared to vehicle or other agents, in words [4]: did not reduce levels of BUN; also recorded: did not show significant reductions
BUN [4]: 23.5 mg/dL
Creatinine [4]: 0.20 mg/dL

Brc1ccc(NC2C3CC4CC(C3)CC2C4)cc1 (centres unmarked) [Bromantane, N-(4-Bromophenyl)adamantan-2-amine]
Drained Left Kidney [1, 5]: 0.1775 g
Excised Left Kidney [1, 6]: 0.3995 g
Right Kidney (g) [1, 6]: 0.143* g
Mean body weight change, comparison with control groups, in words [2]: comparable to that of the surgery vehicle control group
Mean Body Weight Change Following Surgery, Day 1 [3]: 0 g
Mean Body Weight Change Following Surgery, Day 4 [3]: 0.11 g
Mean Body Weight Change Following Surgery, Day 7 [3]: 0.36 g
Mean Body Weight Change Following Surgery, Day 10 [3]: 0.15 g
Mean Body Weight Change Following Surgery, Day 14 [3]: 0.55 g
Body weight course after surgery, in words [3]: no initial decrease in body weight; also recorded: appeared to reverse the negative effects of UUO on body weight gain
Level of BUN compared to vehicle or other agents, in words [4]: significant reductions in the level of BUN compared to vehicle; also recorded: most effective compound tested; also recorded: superior to Telmisartan; also recorded: reduction in BUN compared to vehicle; also recorded: highest reductions in both fibrosis and BUN levels
BUN [4]: 17.3** mg/dL
Creatinine [4]: 0.20 mg/dL
